According to patent US11554171B2, “Compounds and methods for the targeted degradation of bromodomain-containing proteins” (Arvinas Operations, Inc., priority 2015, dated 2023):

Test system: c-myc in 22RV-1 cells
Assay: Human c-myc ELISA assay
Assay type: cell-based
Conditions: Homo sapiens; for Emax: 22Rv1, 18 h, read-out: Degradation of BRD4: Maximum inhibition (%) c-Myc ELISA in 22RV1 cells; for DC50: 22Rv1, read-out: Degradation of BRD4: DC50 (uM) c-Myc ELISA in 22RV1 cells
Procedure, shortened: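 c-myc levels measured by ELISA in RIPA lysates of 22RV-1 cells, calibrated with a 333-0 pg/ml standard curve. Lysates came from cells exposed for 18 h to an 8-point, 1:3 dose series starting at 300 nM or 1 μM final in 0.1% DMSO. Suppression potency given as DC50.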

Compound	DC50 [µM]	Emax [%]
Cc1sc2c(c1C)C(c1ccc(Cl)cc1)=N[C@@H](CC(=O)N[C@H]1C[C@@H](Oc3ccc4oc(C(=O)N[C@H](C(=O)N5C[C@H](O)C[C@H]5C(=O)N[C@@H](C)c5ccc(-c6scnc6CO)cc5)C(C)(C)C)cc4c3)C1)c1nnc(C)n1-2 [Example 342, (2S,4R)-1-[(2S)-3,3-dimethyl-2-({5-[(1,3-cis)-3-{2-[(9S)-7-(4-chlorophenyl)-4,5,13-trimethyl-3-thia-1,8,11,12-tetraazatricyclo[8.3.0.0^2,^6]trideca-2(6),4,7,10,12-pentaen-9-yl]acetamido}cyclobutoxy]-1-benzofuran-2-yl}formamido)butanoyl]-4-hydroxy-N-[(1S)-1-{4-[4-(hydroxymethyl)-1,3-thiazol-5-yl]phenyl}ethyl]pyrrolidine-2-carboxamide]	< 0.01	100
Cc1ncsc1-c1ccc([C@H](C)NC(=O)[C@H]2C[C@H](O)CN2C(=O)[C@@H](NC(=O)CN2CCC(O[C@H]3C[C@H](NC(=O)C[C@@H]4N=C(c5ccc(Cl)cc5)c5c(sc(C)c5C)-n5c(C)nnc54)C3)CC2)C(C)(C)C)cc1 [Example 345]	> 1	< 5
Cc1ncsc1-c1ccc([C@H](C)NC(=O)[C@H]2C[C@@H](O)CN2C(=O)[C@@H](NC(=O)CN2CCC(O[C@H]3C[C@H](NC(=O)C[C@@H]4N=C(c5ccc(Cl)cc5)c5c(sc(C)c5C)-n5c(C)nnc54)C3)CC2)C(C)(C)C)cc1 [Example 347]	> 1	< 5
Cc1ncsc1-c1ccc([C@H](C)NC(=O)[C@@H]2C[C@@H](O)CN2C(=O)[C@H](NC(=O)CN2CCC(O[C@H]3C[C@H](NC(=O)C[C@@H]4N=C(c5ccc(Cl)cc5)c5c(sc(C)c5C)-n5c(C)nnc54)C3)CC2)C(C)(C)C)cc1 [Example 348]	> 1	46
Cc1ncsc1-c1ccc([C@H](C)NC(=O)[C@@H]2C[C@@H](O)CN2C(=O)[C@@H](NC(=O)C[C@@H]2N=C(c3ccc(Cl)cc3)c3c(sc(C)c3C)-n3c(C)nnc32)C(C)(C)C)cc1 [Example 349]	> 1	22
Cc1ncsc1-c1ccc([C@H](C)NC(=O)[C@@H]2C[C@@H](O)CN2C(=O)[C@@H](NC(=O)CN2CCC(O[C@H]3C[C@H](NC(=O)C[C@@H]4N=C(c5ccc(Cl)cc5)c5ccccc5-c5c(C)noc54)C3)CC2)C(C)(C)C)cc1 [Example 350, (2S,4R)-1-[(2S)-3,3-dimethyl-2-(2-{4-[(1,3-trans)-3-{2-[(7S)-9-(4-chlorophenyl)-3-methyl-5-oxa-4,8-diazatricyclo[8.4.0.0^2,^6]tetradeca-1(10),2(6),3,8,11,13-hexaen-7-yl]acetamido}cyclobutoxy]piperidin-1-yl}acetamido)butanoyl]-4-hydroxy-N-[(1S)-1-[4-(4-methyl-1,3-thiazol-5-yl)phenyl]ethyl]pyrrolidine-2-carboxamide]	< 0.01	100
Cc1ncsc1-c1ccc([C@H](CO)NC(=O)[C@@H]2C[C@@H](O)CN2C(=O)[C@@H](NC(=O)CN2CCC(O[C@H]3C[C@H](NC(=O)C[C@@H]4N=C(c5ccc(Cl)cc5)c5c(sc(C)c5C)-n5c(C)nnc54)C3)CC2)C(C)(C)C)cc1 [Example 351, (2S,4R)-1-[(2S)-3,3-dimethyl-2-(2-{4-[(1,3-trans)-3-{2-[(9S)-7-(4-chlorophenyl)-4,5,13-trimethyl-3-thia-1,8,11,12-tetraazatricyclo[8.3.0.0^2,^6]trideca-2(6),4,7,10,12-pentaen-9-yl]acetamido}cyclobutoxy]piperidin-1-yl}acetamido)butanoyl]-4-hydroxy-N-[(1R)-2-hydroxy-1-[4-(4-methyl-1,3-thiazol-5-yl)phenyl]ethyl]pyrrolidine-2-carboxamide]	< 0.01	100
Cc1ncsc1-c1ccc([C@@H](CO)NC(=O)[C@@H]2C[C@@H](O)CN2C(=O)[C@@H](NC(=O)CN2CCC(O[C@H]3C[C@H](NC(=O)C[C@@H]4N=C(c5ccc(Cl)cc5)c5c(sc(C)c5C)-n5c(C)nnc54)C3)CC2)C(C)(C)C)cc1 [Example 352, (2S,4R)-1-[(2S)-3,3-dimethyl-2-(2-{4-[(1,3-trans)-3-{2-[(9S)-7-(4-chlorophenyl)-4,5,13-trimethyl-3-thia-1,8,11,12-tetraazatricyclo[8.3.0.0^2,^6]trideca-2(6),4,7,10,12-pentaen-9-yl]acetamido}cyclobutoxy]piperidin-1-yl}acetamido)butanoyl]-4-hydroxy-N-[(1S)-2-hydroxy-1-[4-(4-methyl-1,3-thiazol-5-yl)phenyl]ethyl]pyrrolidine-2-carboxamide]	> 1	< 20
Cc1ncsc1-c1ccc([C@H](C)NC(=O)[C@@H]2C[C@@H](O)CN2C(=O)[C@@H](NC(=O)CN2CCC(N3CCC(NC(=O)C[C@@H]4N=C(c5ccc(Cl)cc5)c5c(sc(C)c5C)-n5c(C)nnc54)CC3)CC2)C(C)(C)C)cc1 [Example 353, (2S,4R)-1-[(2S)-2-{2-[4-(4-{2-[(9S)-7-(4-chlorophenyl)-4,5,13-trimethyl-3-thia-1,8,11,12-tetraazatricyclo[8.3.0.0^2,6]trideca-2(6),4,7,10,12-[0261]pentaen-9-yl]acetamido}piperidin-1-yl)piperidin-1-yl]acetamido}-3,3-dimethylbutanoyl]-4-hydroxy-N-[(1S)-1-[4-(4-methyl-1,3-thiazol-5-yl)phenyl]ethyl]pyrrolidine-2-carboxamide]	0.1 to 1	> 90
Cc1ncsc1-c1ccc([C@H](C)NC(=O)[C@@H]2C[C@@H](O)CN2C(=O)[C@@H](NC(=O)CN2CCN(C3CC4(C3)CN(C(=O)C[C@@H]3N=C(c5ccc(Cl)cc5)c5c(sc(C)c5C)-n5c(C)nnc53)C4)C[C@H]2C)C(C)(C)C)cc1 [Example 356]	0.01 to 0.1	100
Cc1ncsc1-c1ccc([C@H](C)NC(=O)[C@@H]2C[C@@H](O)CN2C(=O)[C@@H](NC(=O)CN2C[C@@H](C)N(C3CC4(C3)CN(C(=O)C[C@@H]3N=C(c5ccc(Cl)cc5)c5c(sc(C)c5C)-n5c(C)nnc53)C4)C[C@@H]2C)C(C)(C)C)cc1 [Example 357, (2S,4R)-1-[(2S)-2-{2-[(2S,5R)-4-(2-{2-[(9S)-7-(4-chlorophenyl)-4,5,13-trimethyl-3-thia-1,8,11,12-tetraazatricyclo[8.3.0.0^2,^6]trideca-2(6),4,7,10,12-pentaen-9-yl]acetyl}-2-azaspiro[3.3]heptan-6-yl)-2,5-dimethylpiperazin-1-yl]acetamido}-3,3-dimethylbutanoyl}-4-hydroxy-N-[(1S)-1-[4-(4-methyl-1,3-thiazol-5-yl)phenyl]ethyl]pyrrolidine-2-carboxamide]	0.01 to 0.1	100
Cc1ncsc1-c1ccc([C@H](C)NC(=O)[C@@H]2C[C@@H](O)CN2C(=O)[C@@H](NC(=O)CN2CCN(C3CC4(C3)CN(C(=O)C[C@@H]3N=C(c5ccc(Cl)cc5)c5c(sc(C)c5C)-n5c(C)nnc53)C4)C[C@@H]2C)C(C)(C)C)cc1 [Example 358]	0.01 to 0.1	> 90
Cc1ncsc1-c1ccc([C@H](C)NC(=O)[C@@H]2C[C@@H](O)CN2C(=O)[C@@H](NC(=O)CN2C[C@H](C)N(C3CC4(C3)CN(C(=O)C[C@@H]3N=C(c5ccc(Cl)cc5)c5c(sc(C)c5C)-n5c(C)nnc53)C4)C[C@H]2C)C(C)(C)C)cc1 [Example 359]	0.01 to 0.1	> 90

Further lines, with some results ahead:

DC50 [µM]	Compound	Emax [%]
0.01 to 0.1	Cc1ncsc1-c1ccc([C@H](C)NC(=O)[C@@H]2C[C@@H](O)CN2C(=O)[C@@H](NC(=O)Cc2ccc(-c3cn([C@H](C)CNC(=O)C[C@@H]4N=C(c5ccc(Cl)cc5)c5c(sc(C)c5C)-n5c(C)nnc54)cn3)cc2)C(C)(C)C)cc1 [Example 340]	92.2
< 0.01	Cc1ncsc1-c1ccc([C@H](C)NC(=O)[C@@H]2C[C@@H](O)CN2C(=O)[C@@H](NC(=O)Cc2ccc(-c3cn([C@@H](C)CNC(=O)C[C@@H]4N=C(c5ccc(Cl)cc5)c5c(sc(C)c5C)-n5c(C)nnc54)cn3)cc2)C(C)(C)C)cc1 [Example 341]	98.5
0.01 to 0.1	Cc1ncsc1-c1ccc([C@H](C)NC(=O)[C@@H]2C[C@@H](OC(=O)CC(C)(C)N)CN2C(=O)[C@@H](NC(=O)c2cc3cc(O[C@H]4C[C@@H](NC(=O)C[C@@H]5N=C(c6ccc(Cl)cc6)c6c(sc(C)c6C)-n6c(C)nnc65)C4)ccc3o2)C(C)(C)C)cc1 [Example 343]	87
0.01 to 0.1	Cc1ncsc1-c1ccc([C@H](C)NC(=O)[C@@H]2C[C@@H](OC(=O)CCCN)CN2C(=O)[C@@H](NC(=O)c2cc3cc(O[C@H]4C[C@@H](NC(=O)C[C@@H]5N=C(c6ccc(Cl)cc6)c6c(sc(C)c6C)-n6c(C)nnc65)C4)ccc3o2)C(C)(C)C)cc1 [Example 344]	95.9
0.01 to 0.1	Cc1sc2c(c1C)C(c1ccc(Cl)cc1)=N[C@@H](CC(=O)N[C@H]1C[C@H](OC3CCN(CC(=O)N[C@H](C(=O)N4C[C@H](O)C[C@H]4C(=O)N[C@@H](C)c4ccc(-c5scnc5CO)cc4)C(C)(C)C)CC3)C1)c1nnc(C)n1-2 [Example 346]	90
0.01 to 0.1	Cc1ncsc1-c1ccc([C@H](C)NC(=O)[C@@H]2C[C@@H](O)CN2C(=O)[C@@H](NC(=O)CN2CCN(C3CC4(C3)CN(C(=O)C[C@@H]3N=C(c5ccc(Cl)cc5)c5c(sc(C)c5C)-n5c(C)nnc53)C4)[C@@H](C)C2)C(C)(C)C)cc1 [Example 354, (2S,4R)-1-[(2S)-2-{2-[(3S)-4-(2-{2-[(9S)-7-(4-chlorophenyl)-4,5,13-trimethyl-3-thia-1,8,11,12-tetraazatricyclo[8.3.0.0^2,^6]trideca-2(6),4,7,10,12-pentaen-9-yl]acetyl}-2-azaspiro[3.3]heptan-6-yl)-3-methyl-piperazin-1-yl]acetamido}-3,3-dimethylbutanoyl]-4-hydroxy-N-[(1S)-1-[4-(4-methyl-1,3-thiazol-5-yl)phenyl]ethyl]pyrrolidine-2-carboxamide]	100
0.01 to 0.1	Cc1ncsc1-c1ccc([C@H](C)NC(=O)[C@@H]2C[C@@H](O)CN2C(=O)[C@@H](NC(=O)CN2CCN(C3CC4(C3)CN(C(=O)C[C@@H]3N=C(c5ccc(Cl)cc5)c5c(sc(C)c5C)-n5c(C)nnc53)C4)[C@H](C)C2)C(C)(C)C)cc1 [Example 355]	100
